{"source": "patent US12071421B2", "about": "“Process for the synthesis of substituted chloromethyl dialkylphosphates” (HELSINN HEALTHCARE SA, priority 2011, dated 2024)", "key": {"[1]": {"assay": "Aqueous solubility (neutral pH)", "format": "physicochemical", "details": "for solubility: aqueous medium"}, "[2]": {"assay": "Chemical stability according to ICH guidelines under accelerated conditions (40° C.)", "format": "physicochemical", "description": "Stability was tested according to ICH guidelines under accelerated conditions (40° C.)."}, "[3]": {"assay": "Dog PKs study / comparative bioequivalence (IV vs oral netupitant)", "format": "in vivo, Beagle dogs", "description": "The pharmacokinetics (PKs) study of three compounds (e.g., compound nos. 1-3 of the above Table 3), as compared to a reference compound—netupitant (orally administered), on rat and dog was conducted.\nDog PKs Study: the dogs tested in the study were Beagle dogs, body weight 8-10 kg, and 3 male dogs per group. The four PK experiments were performed in 12 naïve dogs. The dose was 3 mg/kg administered via intravenous (IV) slow injection into the left and right cephalic or left and right saphenous veins used in rotation. […] The dose was administered to each animal on the basis of the most recently recorded body weight and the volume administered was recorded for each animal. Netupitant 3 mg/kg dose was tested at 2 ml/kg in vehicle (DMSO:Ethanol:Tween80 solution=[…], v/v), dependence on its solubility. Dose was freshly prepared before each single PK experiment. Before administration, dogs were fasted 12 hr, water ad libitum. After 480 min time point blood was collected, dogs were fed. 0.5 ml blood was collected in heparinised tubes at pre-dose and at 2, 5, 15, 30 min, 1, 2, 4, 6, 8, 12, 24, 36, 48 and 72 hr after intravenous administration. […] Prepared quantification standard curve at 2, 10, 40, 100, 200, 1000 and 2000 ng/ml (diluted from methanol stock with methanol containing 1% formic acid). […] Dog plasma samples were analyzed by using an API4000 MS coupled with HPLC. […]"}, "[4]": {"assay": "Stability studies of GA1 parent acid species and its salts (degradation on storage)", "description": "Their synthesis employed either a) neutralization of the dried diacid phosphate species and its corresponding base salts or b) a direct acid deprotection starting from the dried di(tert-butyl)-protected phosphate species. Neutralization was performed with L-histidine, magnesium salt, N-methyl-D-glucamine (dimeglumine), and L-lysine. Both procedures were tried in the synthesis of citric derivatives whereas with other acids the direct deprotection reaction was used. The figures below show the most relevant structures.\nAlphabetical letters are used to denote data points on the graph that correspond to degradation percentage values over time for respective salts of the same parent compound as just described above and in Table 2 below."}}, "data": [{"smiles": "CCCC(=O)OC[N+]1(C)CCN(c2cc(-c3ccccc3C)c(N(C)C(=O)C(C)(C)c3cc(C(F)(F)F)cc(C(F)(F)F)c3)cn2)CC1", "note": "[Compound 8]", "values": [{"measurement": "Solubility (neutral pH)", "setting": "[1]", "result": "insoluble"}, {"measurement": "Chemical Stability", "setting": "[2]", "result": "Low"}]}, {"smiles": "Cc1ccccc1-c1cc(N2CC[N+](C)(COP(=O)(O)O)CC2)ncc1N(C)C(=O)C(C)(C)c1cc(C(F)(F)F)cc(C(F)(F)F)c1", "note": "[Compound 1]", "values": [{"measurement": "bioequivalence to oral netupitant at the same dose", "setting": "[3]; IV", "result": "bioequivalent"}, {"measurement": "solubility", "setting": "[1]; pH 7", "result": "10000 to 15000", "unit": "µg/mL"}, {"measurement": "Chemical Stability", "setting": "[2]", "result": "medium"}]}, {"smiles": "Cc1ccccc1-c1cc(N2CC[N+](C)(COP(=O)([O-])O)CC2)ncc1N(C)C(=O)C(C)(C)c1cc(C(F)(F)F)cc(C(F)(F)F)c1", "note": "[1. NaOH, 3 eq. 2. Fumaric acid, 1 eq.]", "values": [{"measurement": "Degradation", "setting": "[4]; 12 days", "result": "+1.80% in 12 days (in argon)"}, {"measurement": "Degradation", "setting": "[4]; 14 days", "result": "+1.95% in 14 days (in air)"}]}, {"smiles": "Cc1ccccc1-c1cc([N+]2([O-])CCN(C)CC2)ncc1N(C)C(=O)C(C)(C)c1cc(C(F)(F)F)cc(C(F)(F)F)c1", "note": "[Compound 5, reference compound]", "values": [{"measurement": "solubility", "setting": "[1]; pH 7", "result": "~1000", "unit": "µg/mL"}, {"measurement": "Chemical Stability", "setting": "[2]", "result": "medium"}]}, {"smiles": "Cc1ccccc1-c1cc(N2CC[N+](C)(COP(=O)([O-])O)CC2)ncc1N(C)C(=O)C(C)(C)c1cc(C(F)(F)F)cc(C(F)(F)F)c1", "note": "[HBr, 48%, 4 eq.]", "values": [{"measurement": "Product stability (comment)", "setting": "[4]", "result": "Product degrades rapidly."}]}, {"smiles": "CC(=O)OC[N+]1(C)CCN(c2cc(-c3ccccc3C)c(N(C)C(=O)C(C)(C)c3cc(C(F)(F)F)cc(C(F)(F)F)c3)cn2)CC1", "note": "[Compound 7]", "values": [{"measurement": "Solubility (neutral pH)", "setting": "[1]", "result": "insoluble"}, {"measurement": "Chemical Stability", "setting": "[2]", "result": "low"}]}, {"smiles": "Cc1ccccc1-c1cc(N2CC[N+](C)(COP(=O)([O-])O)CC2)ncc1N(C)C(=O)C(C)(C)c1cc(C(F)(F)F)cc(C(F)(F)F)c1", "note": "[L-lysine, 1 eq.]", "values": [{"measurement": "Degradation", "setting": "[4]; 12 days", "result": "+0.48% in 12 days (in argon)"}, {"measurement": "Degradation", "setting": "[4]; 14 days", "result": "+0.69% in 14 days (in air)"}]}, {"smiles": "Cc1ccccc1-c1cc(N2CC[N+](C)(COP(=O)([O-])O)CC2)ncc1N(C)C(=O)C(C)(C)c1cc(C(F)(F)F)cc(C(F)(F)F)c1", "note": "[parent acid species]", "values": [{"measurement": "Degradation", "setting": "[4]; 1 week", "result": "over 8"}, {"measurement": "Degradation", "setting": "[4]; 6 months", "result": "over 65%"}, {"measurement": "total degradation", "setting": "[4]; 6 months", "result": 7.0300}]}, {"smiles": "Cc1ccccc1-c1cc(N2CC[N+](C)(COP(=O)([O-])O)CC2)ncc1N(C)C(=O)C(C)(C)c1cc(C(F)(F)F)cc(C(F)(F)F)c1", "note": "[N-methyl-D-glucamine (Meglumine), 2 eq.]", "values": [{"measurement": "Degradation", "setting": "[4]; 6 days", "result": "+0.87% in 6 days (in air)"}, {"measurement": "Degradation", "setting": "[4]; 11 days", "result": "+1.52% in 11 days (in argon)"}]}, {"smiles": "Cc1ccccc1-c1cc([N+]2([O-])CCN(C)CC2)[n+]([O-])cc1N(C)C(=O)C(C)(C)c1cc(C(F)(F)F)cc(C(F)(F)F)c1", "note": "[Compound 6]", "values": [{"measurement": "Chemical Stability", "setting": "[2]", "result": "low"}]}, {"smiles": "Cc1ccccc1-c1cc(N2CCN(C)CC2)[n+]([O-])cc1N(C)C(=O)C(C)(C)c1cc(C(F)(F)F)cc(C(F)(F)F)c1", "note": "[Compound 4]", "values": [{"measurement": "solubility", "setting": "[1]; pH 7", "result": "~600", "unit": "µg/mL"}, {"measurement": "Chemical Stability", "setting": "[2]", "result": "medium"}]}, {"smiles": "Cc1ccccc1-c1cc(N2CC[N+](C)(COP(=O)(O)O)CC2)ncc1N(C)C(=O)C(C)(C)c1cc(C(F)(F)F)cc(C(F)(F)F)c1.Cl.[Cl-]", "note": "[chloride hydrochloride HCl salt of GA1, 4-(5-(2-(3,5-bis(trifluoromethyl)phenyl)-N,2-dimethylpropanamido)-4-(o-tolyl)pyridin-2-yl)-1-methyl-1-((phosphonooxy)methyl)piperazin-1-ium chloride hydrochloride]", "values": [{"measurement": "resistance to decoupling of the oxo-phosphonomethyl and reversion of the active moiety to its parent state", "setting": "[4]", "result": "tremendously resistant"}]}, {"smiles": "Cc1ccccc1-c1cc(N2CCN(C)CC2)ncc1N(C)C(=O)C(C)(C)c1cc(C(F)(F)F)cc(C(F)(F)F)c1", "note": "[Compound 9, 2-(3,5-bis(trifluoromethyl)phenyl)-N,2-dimethyl-N-(6-(4-methylpiperazin-1-yl)-4-(o-tolyl)pyridin-3-yl)propanamide, reference compound]", "values": [{"measurement": "AUC(0-t)", "setting": "[3]; male, beagle, plasma, PO, 3 mg/kg, read-out: Mean AUC0-t (converted)", "result": 5120, "unit": "ng·h/mL"}, {"measurement": "solubility", "setting": "[1]; pH 7, unit inferred", "result": 250, "unit": "µg/mL"}]}]}
